# In patent US20110166112A1, “METHOD FOR STIMULATING PLATELET PRODUCTION” (Eisai, Inc., priority 2009, published 2011):
# Tested on: subjects with chronic ITP
# Experiment: Combined 28-day and 6-month rollover studies of E5501: safety (TEAEs, serious TEAEs, thromboembolic events, neoplasms, liver toxicity, discontinuations)
# Assay type: in vivo, human
# Source text: Primary Endpoint: The primary endpoint was to assess the safety and tolerability to E5501, including AEs and clinical laboratory parameters, over the 6 additional months of treatment.
# In this way, safety data reflect each subject's complete duration of exposure to E5501 starting with lead-in the previous study and continuing into the current study.
# Following Protocol Amendment 4, the current study contained a flexible dose regimen; therefore, this study was considered to have an open-label, uncontrolled, single-arm design. […] This was the method used to assess safety. • Grouping method B was based on both treatment received and day 28 platelet response to study drug in Study the previous study. This was the method used for the analysis of efficacy for the FAS and the SE population.
# Overall Adverse Events. […] The primary focus is on summary statistics for the entire safety population and provides an overall safety profile for E5501. The summary statistics for each group, e.g., lower ⅓, middle ⅓ and upper ⅓ average daily dose levels, is secondary and provides further safety information across the 3 dose levels.
# [1] = Upper ⅓ dose (≧13.5-≦25.7 mg), N=20
# [2] = combined studies, E5501-treated subjects overall
# [3] = one subject, 5 mg/day, approximately 21 days after initiation, grade 2
# [4] = one subject, 20 mg/day, approximately 164 days after initiation, grade 3
compound,measurement,setting,value
"O=C(Nc1nc(-c2cc(Cl)cs2)c(N2CCN(C3CCCCC3)CC2)s1)c1cnc(N2CCC(C(=O)O)CC2)c(Cl)c1 [E5501, 1-(3-chloro-5-{[4-(4-chlorothiophen-2-yl)-5-(4-cyclohexylpiperazin-1-yl)thiazol-2-yl]carbamoyl}pyridine-2-yl)piperidine-4-carboxylic acid]","Dose interruption due to TEAE, % of subjects",[1],(10.0) %
same,"Dose interruption due to TEAE, n of subjects",[1],2
same,"Dyspnoea, % of subjects",[1],(5.0) %
same,"Dyspnoea, n of subjects",[1],1
same,"Ecchymosis, % of subjects",[1],(10.0) %
same,"Ecchymosis, n of subjects",[1],2
same,"Epistaxis, % of subjects",[1],(40.0) %
same,"Epistaxis, n of subjects",[1],8
same,"Fatigue, % of subjects",[1],(35.0) %
same,"Fatigue, n of subjects",[1],7
same,"Gingival bleeding, % of subjects",[1],(20.0) %
same,"Gingival bleeding, n of subjects",[1],4
same,"Headache, % of subjects",[1],(40.0) %
same,"Headache, n of subjects",[1],8
same,"Insomnia, % of subjects",[1],(5.0) %
same,"Insomnia, n of subjects",[1],1
same,"Migraine, % of subjects",[1],(10.0) %
same,"Migraine, n of subjects",[1],2
same,"Mouth haemorrhage, % of subjects",[1],(10.0) %
same,"Mouth haemorrhage, n of subjects",[1],2
same,"Nausea, % of subjects",[1],(20.0) %
same,"Nausea, n of subjects",[1],4
same,"Pain in extremity, % of subjects",[1],(10.0) %
same,"Pain in extremity, n of subjects",[1],2
same,"Petechiae, % of subjects",[1],(10.0) %
same,"Petechiae, n of subjects",[1],2
same,"Platelet count increased, % of subjects",[1],(10.0) %
same,"Platelet count increased, n of subjects",[1],2
same,"Serious TEAE Cerebrovascular accident, n (%) of subjects",[1],1 (5.0) n (%)
same,"Serious TEAE Chest pain, n (%) of subjects",[1],1 (5.0) n (%)
same,"Serious TEAE Diarrhoea, n (%) of subjects",[1],1 (5.0) n (%)
same,"Serious TEAE Haemorrhage intracranial, n (%) of subjects",[1],0 n (%)
same,"Serious TEAE Lethargy, n (%) of subjects",[1],0 n (%)
same,"Serious TEAE Mitral valve incompetence, n (%) of subjects",[1],1 (5.0) n (%)
same,"Serious TEAE Myocardial infarction, n (%) of subjects",[1],0 n (%)
same,"Serious TEAE Nausea, n (%) of subjects",[1],0 n (%)
same,"Serious TEAE Pelvic venous thrombosis, n (%) of subjects",[1],0 n (%)
same,"Serious TEAE Platelet count decreased, n (%) of subjects",[1],0 n (%)
same,"Serious TEAE Pneumonia, n (%) of subjects",[1],0 n (%)
same,"Serious TEAE Pyrexia, n (%) of subjects",[1],1 (5.0) n (%)
same,"Serious TEAE Thrombocytopenia, n (%) of subjects",[1],0 n (%)
same,"Serious TEAE Transient ischaemic attack, n (%) of subjects",[1],0 n (%)
same,"Serious TEAE Vomiting, n (%) of subjects",[1],1 (5.0) n (%)
same,"Serious TEAE, % of subjects",[1],(5.0) %
same,"Serious TEAE, SOC Blood and lymphatic system disorders, n (%) of subjects",[1],0 n (%)
same,"Serious TEAE, SOC Cardiac disorders, n (%) of subjects",[1],1 (5.0) n (%)
same,"Serious TEAE, SOC Gastrointestinal disorders, n (%) of subjects",[1],1 (5.0) n (%)
same,"Serious TEAE, SOC General disorders and administration site conditions, n (%) of subjects",[1],1 (5.0) n (%)
same,"Serious TEAE, SOC Infections and infestations, n (%) of subjects",[1],0 n (%)
same,"Serious TEAE, SOC Investigations, n (%) of subjects",[1],0 n (%)
same,"Serious TEAE, SOC Nervous system disorders, n (%) of subjects",[1],1 (5.0) n (%)
same,"Serious TEAE, SOC Vascular disorders, n (%) of subjects",[1],0 n (%)
same,"Serious TEAE, n of subjects",[1],1
same,"Serious treatment-related TEAEs, n of subjects",[1],0
same,"Severe (grade 3-4) TEAEs, % of subjects",[1],(35.0) %
same,"Severe (grade 3-4) TEAEs, n of subjects",[1],7
same,"Somnolence, % of subjects",[1],(10.0) %
same,"Somnolence, n of subjects",[1],2
same,"Suspected drug-related AEs, % of subjects",[1],(65.0) %
same,"Suspected drug-related AEs, n of subjects",[1],13
same,"Upper respiratory tract infection, % of subjects",[1],(15.0) %
same,"Upper respiratory tract infection, n of subjects",[1],3
same,"Vomiting, % of subjects",[1],(20.0) %
same,"Vomiting, n of subjects",[1],4
same,"Withdrawal due to TEAE, % of subjects",[1],(10.0) %
same,"Withdrawal due to TEAE, n of subjects",[1],2
same,treated subjects with thromboembolic events,both studies combined,approximately 6%
same,subjects with thromboembolic events,"both studies combined, doses of 10 mg/day or higher",4 subjects
same,subjects with TEAE possibly or probably treatment related,combined studies,64.1%
same,subjects with TEAEs that led to interruption of study treatment,combined studies,8 subjects
same,subjects with TEAEs that led to premature discontinuation of study treatment,combined studies,Seven
same,subjects who experienced one or more TEAEs,"combined studies, 64 subjects",96.9%
same,Epistaxis,[2],23.4%
same,Fatigue,[2],34.4%
same,Headache,[2],32.8%
same,Vomiting,[2],10.9%
same,arthralgia,[2],14.1%
same,contusion,[2],18.8%
same,diarrhea,[2],14.1%
same,gingival bleeding,[2],10.9%
same,serious TEAEs,"combined studies, all",16 cases
same,subjects reporting serious TEAEs,"combined studies, all",Five
same,deaths,during the study,No deaths occurred
same,neoplastic events of interest,during this study,Three
same,serious TEAEs,lower ⅓ dose level group,1 cases
same,subjects reporting serious TEAEs,lower ⅓ dose level group,1 subjects
same,serious TEAEs,middle ⅓ dose level group,9 cases
same,subjects reporting serious TEAEs,middle ⅓ dose level group,3 subjects
same,serum ALT,[3],210 U/L
same,serum AST,[3],143 U/L
same,ALT,[4],421 U/L
same,AST,[4],431 U/L
same,serious TEAEs,upper ⅓ dose level group,6 cases
same,subjects reporting serious TEAEs,upper ⅓ dose level group,1 subjects
